Measured values as given in patent US6858591B2, “Antibiotic AA 896 analogs” (Wyeth Holdings Corporation, priority 2001, dated 2005).
≈ marks a conversion by molar mass, not a printed value. Where two headings read alike, the source gives them in different places.

Experiments:
Assay in all cases: In vitro MIC, broth dilution
Type in all cases: cell-based
[1] = test system: P. aeruginosa GC 4532; settings: Pseudomonas aeruginosa, GC4532
[2] = test system: E. coli GC 4559; settings: Escherichia coli, GC4559
[3] = test system: E. coli GC 3226; settings: Escherichia coli, GC3226
[4] = test system: S. aureus GC 2216; settings: Staphylococcus aureus, GC2216
How it was run: (§1)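 Broth microdilution per NCCLS in Mueller-Hinton II, inoculum 5×10^5 CFU/ml, antibiotic range 64-0.06 μg/ml. Plates incubated 18 hours at 35° C. in ambient air; MIC taken as lowest concentration inhibiting visible growth.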

[5] = test system: S. aureus GC 1131; settings: Staphylococcus aureus, GC1131
How it was run: as §1

[6] = test system: E. faecalis GC 842; settings: Enterococcus faecalis, GC842
How it was run: as §1

[7] = test system: CNS GC 4538
How it was run: as §1

[8] = test system: E. faecalis GC 2242; settings: Enterococcus faecalis, GC2242
How it was run: as §1

[9] = test system: CNS GC 4547
How it was run: as §1

[10] = test system: E. faecalis GC 4555; settings: Enterococcus faecalis, GC4555
How it was run: as §1

[11] = test system: S. aureus GC 4536; settings: Staphylococcus aureus, GC4536
How it was run: as §1

[12] = test system: CNS GC 4537
How it was run: as §1

[13] = test system: E. cloacae GC 3783; settings: Enterobacter cloacae, GC3783
[14] = test system: C. albicans GC 3066; settings: Candida albicans, GC3066
[15] = test system: S. marcescens GC 4077; settings: Serratia marcescens, GC4077
[16] = test system: E. coli GC 2203; settings: Escherichia coli, GC2203
[17] = test system: K. pneumoniae GC 4534; settings: Klebsiella pneumoniae, GC4534
[18] = test system: E. coli GC 4560; settings: Escherichia coli, GC4560
[19] = test system: M. morganii GC 4531; settings: Morganella morganii, GC4531
[20] = test system: P. aeruginosa GC 2214; settings: Pseudomonas aeruginosa, GC2214
[21] = P. aeruginosa GC 4532, read-out: MIC
[22] = S. aureus GC 2216, read-out: MIC
[23] = S. aureus GC 1131, read-out: MIC
[24] = E. faecalis GC 842, read-out: MIC
[25] = E. faecalis GC 2242, read-out: MIC
[26] = E. faecalis GC 4555, read-out: MIC
[27] = S. aureus GC 4536, read-out: MIC
[28] = E. cloacae GC 3783, read-out: MIC
[29] = C. albicans GC 3066, read-out: MIC
[30] = S. marcescens GC 4077, read-out: MIC
[31] = K. pneumoniae GC 4534, read-out: MIC
[32] = M. morganii GC 4531, read-out: MIC
[33] = P. aeruginosa GC 2214, read-out: MIC

Structure (SMILES) | MIC [1, 21] [µg/mL] | MIC ([2]; E. coli GC 4559, read-out: MIC) [µg/mL] | MIC ([3]; E. coli GC 3226, read-out: MIC) [µg/mL] | MIC [4, 22] [µg/mL] | MIC [5, 23] [µg/mL] | MIC [6, 24] [µg/mL] | MIC [7] [µg/mL] | MIC [8, 25] [µg/mL] | MIC [9] [µg/mL] | MIC [10, 26] [µg/mL] | MIC [11, 27] [µg/mL] | MIC [12] [µg/mL] | MIC [13, 28] [µg/mL] | MIC [14, 29] [µg/mL] | MIC [15, 30] [µg/mL] | MIC ([16]; E. coli GC 2203, read-out: MIC) [µg/mL] | MIC [17, 31] [µg/mL] | MIC ([18]; E. coli GC 4560, read-out: MIC) [µg/mL] | MIC [19, 32] [µg/mL] | MIC [20, 33] [µg/mL] | further results
CCOC(=O)C(NCCCNC(=O)[C@@H](NC(=O)[C@H](CCCNC(=N)N[N+](=O)O)NC(=O)N[C@H](C(=O)OCc1ccccc1)C(C)C)[C@@H](O)C(C)C)C(O)[C@H]1O[C@@H](n2ccc(=O)[nH]c2=O)[C@H](OC(C)=O)[C@@H]1OC(C)=O (stereo partly drawn) [Example 37, 16-Benzyl 2-ethyl (1R,9S,12S,16S)-1-[(2R,3R,4R,5R)-3,4-bis(acetyloxy)-5-(2,4-dioxo-3,4-dihydro-1(2H)-pyrimidinyl)tetrahydro-2-furanyl]-12-(3-{[(2,2-dioxido-2lambda˜1˜-diazanyl)(imino)methyl]amino}propyl)-1-hydroxy-9-[(1S)-hydroxy-2-methylpropyl]-17-methyl-8,11,14-trioxo-3,7,10,13,15-pentaazaoctadecane-2,16-dicarboxylate] | > 128 | > 128 | > 128 | > 128 | > 128 | > 128 | > 128 | 128 | > 128 | > 128 | > 128 | > 128 | > 128 | > 128 | > 128 | > 128 | > 128 | > 128 | > 128 | > 128 | 
COc1ccc(Cn2c(=O)ccn([C@@H]3OC([C@H](O)[C@H](NCCCNC(=O)[C@H](CC(C)C)NC(=O)[C@H](CCCNC(=N)N[N+](=O)O)NC(=O)N[C@H](C(=O)OCc4ccccc4)C(C)C)C(=O)OC(C)(C)C)[C@@H](O[Si](C)(C)C(C)(C)C)[C@H]3O[Si](C)(C)C(C)(C)C)c2=O)cc1 (stereo partly drawn) [Example 28, 1-Benzyl 17-(tert-butyl)(2S,6S,9S,16S)-16-[(R)-[(3R,4R,5R)-3,4-bis{[tert-butyl(dimethyl)silyl]oxy}-5-(3-(4-methoxybenzyl)-2,4-dioxo-3,4-dihydro-1(2H)-pyrimidinyl)tetrahydro-2-furanyl](hydroxy)methyl]-6-(3-{[(2,2-dioxido-2lambda˜1˜-diazanyl)(imino)methyl]amino}propyl)-9-isobutyl-2-isopropyl-4,7,10-trioxo-3,5,8,11,15-pentaazaheptadecane-1,17-dioate] |  |  |  |  |  |  | > 128 |  | > 128 |  |  | > 128 |  |  |  |  |  |  |  |  | MIC [1]: > 128 µg/mL; MIC [2]: > 128 µg/mL; MIC [3]: > 128 µg/mL; MIC [4]: > 128 µg/mL; MIC [5]: > 128 µg/mL; MIC [6]: > 128 µg/mL; MIC [8]: > 128 µg/mL; MIC [10]: > 128 µg/mL; MIC [11]: > 128 µg/mL; MIC [13]: > 128 µg/mL; MIC [14]: > 128 µg/mL; MIC [15]: > 128 µg/mL; MIC [16]: > 128 µg/mL; MIC [17]: > 128 µg/mL; MIC [18]: > 128 µg/mL; MIC [19]: > 128 µg/mL; MIC [20]: > 128 µg/mL
COc1ccc(Cn2c(=O)ccn([C@@H]3OC([C@H](O)[C@H](NCCCNC(=O)[C@H](C)NC(=O)OCc4ccccc4)C(=O)OC(C)(C)C)[C@@H](O[Si](C)(C)C(C)(C)C)[C@H]3O[Si](C)(C)C(C)(C)C)c2=O)cc1 (stereo partly drawn) [Example 14, tert-Butyl (5S,12S)-12-[(R)-[(3R,4R,5R)-3,4-bis{[tert-butyl(dimethyl)silyl]oxy}-5-(3-(4-methoxybenzyl)-2,4-dioxo-3,4-dihydro-1(2H)-pyrimidinyl)tetrahydro-2-furanyl](hydroxy)methyl]-5-methyl-3,6-dioxo-1-phenyl-2-oxa-4,7,11-triazatridecan-13-oate] | 128 (≈ 130 µM) | > 128 | > 128 | > 128 | > 128 | > 128 |  | 128 (≈ 130 µM) |  | 128 (≈ 130 µM) | > 128 |  | > 128 | 128 (≈ 130 µM) | > 128 | > 128 | > 128 | 128 (≈ 130 µM) | 128 (≈ 130 µM) | 128 (≈ 130 µM) | MIC ([7]; CNS GC 4538, read-out: MIC): > 128 µg/mL; MIC ([9]; CNS GC 4547, read-out: MIC): 128 µg/mL (≈ 130 µM); MIC ([12]; CNS GC 4537, read-out: MIC): > 128 µg/mL
